Experimental data from patent EP1541694A1, “Methods of identifying, selecting and/or characterizing compounds which modulate the activity of a Src family kinase” (Sirenade Pharmaceuticals AG, priority 2003, dated 2005).

Key:
[1] = tested on: Src-YF expressing cell line ZM77.8; experiment: CTB and ATP cell viability/metabolic activity assays, suppression of tet-induced reduction; format: cell-based, human; conditions: ZM77.8 (Src-YF), 5µM PP2 + 10µM PP1-Chr., 40µM D5, 1µM 17-AAG, 1µM radicicol
From the text: (§1) To proof the concept of the assay platform according to the invention in a quantitative manner with a highly parallel readout, the following cell viability / metabolic activity assays from Promega according to the manufacturer's protocols: "CellTiter 96 AQueous One Solution Cell Proliferation Assay (MTS)", CellTiter-BlueTM Cell Viability Assay (CTB), and the ATP-status assay "CellTiter-Glo Luminescent Cell Viability Assay" (ATP) were used to obtain quantitative values reflecting (aspects of) the phenotype changes. The cells were seeded into white-walled/ clear bottom 96-well plates ["MICROTEST" by Falcon, cat.no. 353947] for MTS and ATP assays and in black-walled/ clear bottom 96-well plates ["MICROTEST" by Falcon, cat.no. 353948] for the CTB assay at the appropriate densities. Tet and/or compound addition (where applicable) was started the next day. Measurements were taken 1,2 and 3 days later using the Wallac Victor^2TM multilabel plate reader (Perkin Elmer). Absorbance was measured at 490nm (MTS). Luminescence mode was used for the ATP assay. For CTB fluorescence excitation wavelength was 550nm (filter: 550(20)nm), emission wavelength was 590 nm (filter: 590(20)nm). Indicated are the means of sixplicate determinations (from 6 independent wells) in the absence of tet (mean(-tet)) and in the presence of tet (mean(+tet)), followed by the respective corresponding standard deviations SD(-tet) and SD(+tet). The cell viability/ metabolic activity upon tet-induction in relation to the cell viability/ metabolic activity without tet ("+/tet(means") is calculated from the quotient of the means of the measured cell viability/ metabolic activity signals from i) cells incubated without tet and ii) cells incubated with tet. […] Furthermore indicated are the corresponding Z' values. In the present context: Z'=1-(3(SD(+tet)+SD(-tet))/ |mean(+tet)-mean(-tet)|. […] SD=0) (Zhang et al., 1999). Z'≥0 is required for an assay useful for a screening approach; a Z'≥0.5 is considered excellent for an assay with regard to high throughput screening. […] Three more parameters reflecting the effects of compounds on cell viability/metabolic activity in these assays are indicated in Tab.3 and Tab.4: Toxicity reflects the nonspecific (i.e. irrespective of tet-induced Src/ Src mutant expression) effects of a compound on the viability/ metabolic activity of the cells. It is calculated as toxicity=1-mean(-tet, compound)/mean(-tet,(DMSO)). […] The suppression value quantifies the potency of a compound with respect to suppression of the tet-induced change in cell viability / metabolic activity. Usually, tet-induction reduces cell viability / metabolic activity due to Src activity and addition of a Src inhibitory compound mitigates this reduction. A suppression of 100% means that the compound totally suppresses the tet-induced decrease in cell viability / metabolic activity (as in the absence of tet). The following formula is employed: Suppres-sion=([…]). Finally, the corresponding Z' value is calculated as follows: Z'(suppression)=1- 3([…]). The factor Qtox corrects the means and SD determined in the absence of a compound for the (nonspecific) toxicity effect of the respective compound, which would otherwise overlay and obscure the specific suppression, if toxicity is not neglectable. […] On each day 4 measurements are taken (1, 2, 3 and 4 h after the addition of the CTB assay reagents). […]

[2] = tested on: Src-TQ/YF expressing cell line ZM170.21; experiment: as above; format: cell-based, human; conditions: ZM170.21 (Src-TQ/YF), 5µM PP2 + 10µM PP1-Chr., 40µM D5, 1µM 17-AAG, 1µM radicicol
From the text: as §1

[3] = tested on: Src-TQ/YF expressing cell line ZM170.21; experiment: Suppression of tet-induced phenotype changes (cell scattering) in suspension, Ultra Low Attachment plates; format: cell-based, human; conditions: ZM170.21 (Src-TQ/YF) in suspension, Ultralow Attachment Plates
Description: (§2) Cells were seeded into 24-well or 96-well "Ultra Low Attachment" plates (cat.no.: 3473, Costar Corning Corp., Acton, MA, USA). These plates are coated with a covalently bound hydrogel layer that prevents cellular attachment to the polystyrene surface of the wells. As the cells were not attached to these wells, a medium change was impossible here. However, the phenotypes were tested in full serum-containing medium in the absence or presence of EGF, PDGF-BB or HGF as detailed above. Tet-induction was also started the day after seeding.
(§3) Largely irrespective of the cell numbers per well, the cells of all cell lines were in suspension and formed one or few very condensed/compact, opaque, rod-, disc- or kidney-shaped aggregates with a smooth surface, in which individual cells could not be discerned. Phenotype changes became apparent ~24 h after tet induction in ZM77 and ZM170 cell lines only, and Δpt(-tet →+tet)max was reached after ~2 days. In these cell lines Src-YF or Src-TQ/YF expression, respectively, induces scattering of the cells. Many cells are floating in the medium individually or in small clusters and the remaining large aggregate(s) are irregular-shaped and rather loose than compact; individual cells can easily be discerned and thus, the surfaces of these aggregates are rough as with bunches of grapes (Fig.14a,b). This biological response was readily observed with or without any of the above growth factors, wherefore normal growth medium without any additional growth factor was subsequently used in this assay type.
(§4) To that end, the test compounds PP1-Chr., SU6656 and PP2 were individually added to the cells together with tet, and the development of the phenotype changes in the presence of these compounds was monitored subsequently in direct comparison with tet-induced cells that received no compound (Fig.14c-j). The compounds were also added to the cells without tet-induction of Src/ Src mutant expression as controls for non-specific/ toxicity effects. The experiments were performed with several ZM77 cell lines.

[4] = tested on: Src-YF expressing ZM77 cell lines; experiment: as above; format: cell-based, human; conditions: Ultralow Attachment Plates
Description: as §2, §3, §4

Abl-TQ = conditions: cited from earlier work
[5] = tested on: Src family kinases when they carry the respective TQ mutations; conditions: cited from earlier work
[6] = tested on: cell line ZM76.3 (Src-KA); experiment: CTB cell viability assay, suppression of tet-induced reduction; format: cell-based, human; conditions: ZM76.3, CTB assay
From the text: To proof the concept of the assay platform according to the invention in a quantitative manner with a highly parallel readout, the following cell viability / metabolic activity assays from Promega according to the manufacturer's protocols: "CellTiter 96 AQueous One Solution Cell Proliferation Assay (MTS)", CellTiter-BlueTM Cell Viability Assay (CTB), and the ATP-status assay "CellTiter-Glo Luminescent Cell Viability Assay" (ATP) were used to obtain quantitative values reflecting (aspects of) the phenotype changes. The cells were seeded into white-walled/ clear bottom 96-well plates ["MICROTEST" by Falcon, cat.no. […] Measurements were taken 1,2 and 3 days later using the Wallac Victor^2TM multilabel plate reader (Perkin Elmer). Absorbance was measured at 490nm (MTS). Luminescence mode was used for the ATP assay. For CTB fluorescence excitation wavelength was 550nm (filter: 550(20)nm), emission wavelength was 590 nm (filter: 590(20)nm). […] The cell viability/ metabolic activity upon tet-induction in relation to the cell viability/ metabolic activity without tet ("+/tet(means") is calculated from the quotient of the means of the measured cell viability/ metabolic activity signals from i) cells incubated without tet and ii) cells incubated with tet. […] It is calculated as toxicity=1-mean(-tet, compound)/mean(-tet,(DMSO)). […]

[7] = tested on: Src-YF expressing ZM77 cell lines; experiment: Suppression of tet-induced phenotype changes, evaluated by eye/microscope, normal cell culture plates; format: cell-based, human; conditions: adherent, serum-containing medium
Description: Phenotype changes -tet → +tet were evaluated in 24-well plates (Nunc; cat.no. 143982) under the following several different growth conditions to identify the strongest possible response (Δpt(-tet→+tet)max) 1. full (10% serum containing) growth medium a) without any growth factor supplement (-), b) with epidermal growth factor (EGF; 100ng/ml) (cat.no. 115, Research Diagnostics Inc. (RDI), Flanders, NJ, USA) or c) platelet derived growth factor type BB (PDGF-BB; 30ng/ml) (cat.no. 114b, RDI) or d) hepatocyte growth factor (HGF; 20ng/ml) (RDI, cat.no.300-010), or 2. serum-free medium a) - or b) +EGF or c) +PDGF or d) +HGF. In all cases, cells were first seeded into standard 24-well or 96-well plates (Nunc) in full growth medium. The cell number seeded per well was also varied to identify the most suitable cell densities producing Δpt(-tet→+tet)max. […]
To that end, the test compounds PP1-Chr., PP2 (cat.no. 529573, Calbiochem) and SU6656 (cat.no. 572635, Calbiochem) (see Fig.9p for chemical structures) were individually added to the cells together with tet, and the development of the phenotype changes in the presence of these compounds was monitored subsequently in direct comparison with cells that received no compound or only vehicle (0.2% DMSO) together with tet induction. […]

Question: What does the source list for `C=CCNC1=C2C[C@@H](C)C[C@H](OC)[C@H](O)[C@@H](C)/C=C(\C)[C@H](OC(N)=O)[C@@H](OC)/C=C\C=C(/C)C(=O)NC(=CC1=O)C2=O` [17-AAG]?
Answer: suppression of the tet-induced reductions of the cell viability/ metabolic activity (+/-tet(means)-values) [1]: equally effective; suppression of the +/-tet(means)-values [2]: equally effective; suppression of tet-induced phenotype (cell scattering) [3]: suppress to a large extent; suppression of tet-induced phenotype changes (cell scattering) [4]: suppress to a large extent

Question: With `Cc1ccc(NC(=O)c2ccc(CN3CCN(C)CC3)cc2)cc1Nc1nccc(-c2cccnc2)n1` [Gleevec®] as the compound, how does the “inhibition of Abl-TQ” value (Abl-TQ) read?
Answer: Its value is “does not inhibit”.

Question: For `Cc1ccc(-c2nn(C(C)(C)C)c3ncnc(N)c23)cc1` [PP1], which “inhibition of Src family kinases carrying the TQ mutations” value [5] is on record?
Answer: The value was “do not inhibit”.

Question: What does the source list for `C[C@@H]1C[C@H]2O[C@@H]2/C=C\C=C\C(=O)Cc2c(Cl)c(O)cc(O)c2C(=O)O1` [Radicicol, radicicol]?
Answer: suppression of the Src-KA-induced phenotype [6]: effectively suppressing; suppression of the tet-induced reductions of the cell viability/ metabolic activity (+/-tet(means)-values) [1]: equally effective; suppression of the +/-tet(means)-values [2]: equally effective; suppression of tet-induced phenotype (cell scattering) [3]: suppress to a large extent; suppression of tet-induced phenotype changes (cell scattering) [4]: suppress to a large extent

Question: What does the source list for `CN(C)S(=O)(=O)c1ccc2c(c1)/C(=C/c1cc3c([nH]1)CCCC3)C(=O)N2` [SU6656]?
Answer: suppression of tet-induced phenotype changes [7]: partially suppressed; suppression of tet-induced phenotype changes (cell scattering) [4]: partially suppressed
